Read-outs that look alike come from different tables or passages of the source. Where no end group is shown, it is not given here. Some results are limits rather than exact numbers.

This is an account of results in paper PMC9405102, “Targeted Modification and Structure-Activity Study of GL-29, an Analogue of the Antimicrobial Peptide Palustrin-2ISb” (Antibiotics, 2022).

Series [1] deals with E. faecalis (NCTC 12697). In kind it is cell-based, Enterococcus faecalis. Particulars: NCTC 12697. The procedure:
(§1) The antimicrobial activity of the peptides was determined through the minimum inhibitory concentrations (MICs) and the minimum bactericidal concentration (MBCs) using the broth-dilution method in a 96-well plate, as described in the previous study. Six bacteria, including the Gram-positive bacteria, S. aureus (ATCC CRM 6538), MRSA (ATCC CRM 12493) and E. faecalis (NCTC 12697), the Gram-negative bacteria, E. coli (ATCC CRM 8739), K. pneumoniae (ATCC CRM 43816) and P. aeruginosa (ATCC CRM 9027), the yeast, C. albicans (ATCC CRM 10231) and clinical isolates, S. aureus (B042 V2E1 A), MRSA (B038 V1S1 A), E. coli (ATCC BAA-2340) and K. pneumoniae (ATCC BAA-1705) were used in these assays to evaluate the antimicrobial potency of the two peptides by determining their MICs and MBCs. All bacteria were cultured in MHB and the yeast, C. albicans was cultured in YPD broth overnight. Then, the microorganisms were sub-cultured and diluted to the final concentration of 2 × 10^5 CFU/mL to 5 × 10^5 CFU/mL. The Norfloxacin and amphotericin B were used as positive controls for the bacteria and yeast, respectively. The assay was repeated three times, with five replicates at each time.

The test system of series [2] is P. aeruginosa (ATCC CRM 9027). In kind it is cell-based, Pseudomonas aeruginosa. Particulars: ATCC CRM 9027. The method, then: as §1
The subject of series [3] is C. albicans (ATCC CRM 10231). It counts as cell-based, Candida albicans. Particulars: ATCC CRM 10231. The procedure: as §1
The test system of series [4] is S. aureus (ATCC CRM 6538). It counts as cell-based, Staphylococcus aureus. As to conditions: ATCC CRM 6538. The procedure: as §1
Another series concerns S. aureus (B042 V2E1 A). It counts as cell-based, Staphylococcus aureus. As to conditions: B042 V2E1 A. The method, then: as §1
In series [5] the test system is MRSA (ATCC CRM 12493). It counts as cell-based, methicillin-resistant S. aureus. As to conditions: ATCC CRM 12493. The method, then:
as §1

For a further series, the system named is MRSA (B038 V1S1 A). In kind it is cell-based, methicillin-resistant S. aureus. As to conditions: B038 V1S1 A. The procedure:
as §1

A further series deals with E. coli (ATCC BAA-2340). In kind it is cell-based, Escherichia coli. Particulars: ATCC BAA-2340. The method, then:
as §1

For series [6], the system named is E. coli (ATCC CRM 8739). In kind it is cell-based, Escherichia coli. Particulars: ATCC CRM 8739. The method, then:
as §1

In series [7] the test system is K. pneumoniae (ATCC BAA-1705). In kind it is cell-based, Klebsiella pneumoniae. Particulars: ATCC BAA-1705. The procedure: as §1
Series [8] concerns K. pneumoniae (ATCC CRM 43816). In kind it is cell-based, Klebsiella pneumoniae. As to conditions: ATCC CRM 43816. The method, then:
as §1

The test system of a further series is horse erythrocytes. In kind it is cell-based. The method, then:
The haemolysis assays were performed by incubating prewashed erythrocyte suspension obtained from fresh defibrinated horse blood (TCS Biosciences Ltd., Buckingham, UK) with a range of peptides at final concentrations from 512 to 1 μM, for 2 h at 37 °C. The red cell suspensions were washed with phosphate-buffered saline (PBS) until the supernatant was clear and then diluted with PBS to form a 2% cell suspension. Peptides were 2-fold diluted by the 2% cell suspension to reach the final concentration range from 512 to 1 μM. The haemolysis of the cell suspensions with either 1% (v/v) Triton X-100 or PBS, were considered as positive controls and negative controls, respectively. After incubation, the extent of haemolysis was determined by measuring the absorbance of the supernatant from each sample at 570 nm with a Synergy HT plate reader (BioTek, USA).
Data were analysed using Prism (Version 8.2.1; GraphPad Software, Inc, San Diego, CA, USA). Error bars in the graphs represented standard errors of means (SEM) of nine repeats from three independent tests. The statistical significance was calculated using two-way ANOVA and is indicated as ns (non-significant difference), * (p < 0.05), ** (p < 0.01), *** (p < 0.001), ****(p < 0.0001). The HC10, HC50 and IC50 values were calculated using the online tool AAT Bioquest (https://www.aatbio.com/index.html, accessed on 6 May 2022).

For series [9], the system named is S. aureus (ATCC CRM 6538). It counts as cell-based, Staphylococcus aureus. As to conditions: ATCC CRM 6538, 24 h. The method, then:
(§2) The MBIC and MBEC assays were performed to measure the inhibition and eradication of bacterial biofilm in the presence of different concentrations of peptides. Gram-positive bacteria were inoculated in Luria–Bertani (LB) broth at 37 °C overnight whereas Gram-negative bacteria were inoculated in tryptic soy broth (TSB), and then sub-cultured until reaching the logarithmic growth phase by measuring the OD values at a wavelength of 550nm. For the MBIC assay, 99 µL of diluted bacterial suspension (5 × 10^5 CFU/mL) was mixed with 1 µL of prepared peptide solutions in the wells of a round-bottomed 96-well plate, achieving the final concentrations from 512 to 1 µM, and then incubated at 37 °C for 24 h in a shaking incubator at 200 revolutions per minute (rpm). After this, the plate was washed twice by PBS and fixed with methanol for 30 min. For MBEC assay, 100 µL of diluted bacterial suspension (5 × 10^5 CFU/mL) was seeded into a round-bottomed 96-well plate and incubated at 37 °C for 24 h in a shaking incubator at 200 rpm to obtain mature biofilm. After this, plates were washed twice by PBS and incubated with different concentrations of peptide solution from 512 to 1 µM at 37 °C for 24 h. Afterwards, the plate was washed twice with PBS and fixed with methanol for 30 min. Then, both MBIC and MBEC plates were stained by 130 μL of 0.1% (g/v) crystal violet solutions for 30 min and washed with PBS until no apparent staining was observed. Evaporating crystal violet stains were dissolved by 33% (v/v) acetic acid, and the absorbance values were measured by a Synergy HT Microplate Reader (BioTek, Minneapolis, MN, USA) set to 595 nm. The minimum concentration that inhibited the formation of biofilm was defined when compared to the negative control group, as the MBIC. The minimum concentration that eradicated the biofilm was defined, when compared to the negative control group, as the MBEC. The biofilm assays were performed in triplicate.

For series [10], the system named is E. faecalis (NCTC 12697). In kind it is cell-based, Enterococcus faecalis. As to conditions: NCTC 12697, 24 h. The method, then: as §2
The subject of series [11] is MRSA (ATCC CRM 12493). It counts as cell-based, methicillin-resistant S. aureus. As to conditions: ATCC CRM 12493, 24 h. The method, then: as §2
Series [12] relates to E. coli (ATCC CRM 8739). It counts as cell-based, Escherichia coli. As to conditions: ATCC CRM 8739, 24 h. The procedure: as §2
Series [13] deals with K. pneumoniae (ATCC CRM 43816). It counts as cell-based, Klebsiella pneumoniae. As to conditions: ATCC CRM 43816, 24 h. The procedure: as §2
Series [14] concerns P. aeruginosa (ATCC CRM 9027). In kind it is cell-based, Pseudomonas aeruginosa. Particulars: ATCC CRM 9027, 24 h. The method, then:
as §2

Series [15] deals with Gram-positive and Gram-negative bacteria. Further details: method as in PMID 21193000. Particulars: cited from earlier work.
Series [16] relates to Staphylococcus aureus (S. aureus). Further details: method as in PMID 21911019. Particulars: cited from earlier work.
For series [17], the system named is Escherichia coli (E. coli). Further details: method as in PMID 21911019. Particulars: cited from earlier work.
The subject of series [18] is methicillin-resistant S. aureus (MRSA). Further details: method as in PMID 21911019. Particulars: cited from earlier work.
In a further series the test system is C. albicans. Further details: method as in PMID 21911019. Particulars: at 100 μM; cited from earlier work.

The MIC is the least concentration at which growth counts as inhibited. In the case of FVNVLDKI-NH2 [FV-8, FVNVLDKI-NH2], the MBC (in the series on E. faecalis (NCTC 12697) [1]; in series [2]; in [3]; in [4]; against S. aureus (B042 V2E1 A); against MRSA (ATCC CRM 12493) [5]) was over 512 µM throughout. The MBC (with MRSA (B038 V1S1 A); with E. coli (ATCC BAA-2340); against E. coli (ATCC CRM 8739) [6]; in [7]; in series [8]) was over 512 µM in each case. In addition, the MIC (against E. faecalis (NCTC 12697) [1]; in series [2]; in series [3]; in series [4]; against S. aureus (B042 V2E1 A); against MRSA (ATCC CRM 12493) [5]) was over 512 µM in each case. For the same substance, the minimum inhibitory concentration (MIC) (in the series on MRSA (B038 V1S1 A); in the series with E. coli (ATCC BAA-2340); in the series with E. coli (ATCC CRM 8739) [6]; in series [7]; in series [8]) was over 512 µM each time. For the same substance, the HC10 with horse erythrocytes turned out to be 504.21 µM; in the series with horse erythrocytes (red cells of horse, 2 h) it was 583.6 µM. In addition, the MBEC (in series [9]; with E. faecalis (NCTC 12697) [10]; in the series on MRSA (ATCC CRM 12493) [11]; in the series with E. coli (ATCC CRM 8739) [12]; in series [13]; in series [14]) was over 512 µM throughout. Further, the MBIC (in series [9]; in the series on E. faecalis (NCTC 12697) [10]; in the series on MRSA (ATCC CRM 12493) [11]; in the series on E. coli (ATCC CRM 8739) [12]; in series [13]; in [14]) was over 512 µM throughout.

In the case of FVNVLDKIR-NH2 [FV-9, FVNVLDKIR-NH2], the MBC (with E. faecalis (NCTC 12697) [1]; in [2]; in [3]; in [4]; against S. aureus (B042 V2E1 A); in the series on MRSA (ATCC CRM 12493) [5]) was over 512 µM in each case. Further, the MBC (in the series on MRSA (B038 V1S1 A); against E. coli (ATCC BAA-2340); against E. coli (ATCC CRM 8739) [6]; in series [7]; in [8]) was over 512 µM each time. The minimal inhibitory concentration (MIC) (against E. faecalis (NCTC 12697) [1]; in series [2]; in series [3]; in series [4]; in the series with S. aureus (B042 V2E1 A); with MRSA (ATCC CRM 12493) [5]) was over 512 µM throughout. For the same substance, the minimum inhibitory concentration (MIC) (against MRSA (B038 V1S1 A); against E. coli (ATCC BAA-2340); against E. coli (ATCC CRM 8739) [6]; in series [7]; in [8]) was over 512 µM each time. In addition, the HC10 stood at 504.21 µM with horse erythrocytes and 504.2 µM in the series with horse erythrocytes (red cells of horse, 2 h). Besides, the MBEC (in series [9]; with E. faecalis (NCTC 12697) [10]; in the series with MRSA (ATCC CRM 12493) [11]; in the series with E. coli (ATCC CRM 8739) [12]; in series [13]; in [14]) was over 512 µM each time. Besides, the MBIC (in series [9]; in the series with E. faecalis (NCTC 12697) [10]; in the series on MRSA (ATCC CRM 12493) [11]; in the series on E. coli (ATCC CRM 8739) [12]; in series [13]; in [14]) was over 512 µM each time.

Turning to “GKKLFVNVLDKIRCKVAGGC [palustrin-2ISb-des-C7-des-N9, literature analogue with one helical part of Pa2ISb-des-C7]”, the “activity against Gram-positive and Gram-negative bacteria” value in [15] was “little activity”.

Turning to “GLWNSIKIAGKKLFVNVLDKIRCKVAGGCKTSPDVE [palustrin-2ISb, parent antimicrobial peptide of 36 residues isolated from Odorrana ishikawae]”, the MIC in series [16] was 6.3 µM; in series [17], 6.3 µM; in series [18] it was 100 µM. For the same substance, the “activity against C. albicans” value in the series with C. albicans was “no activity”.
